Test results reported in patent US20100152206A1, “Bicyclic Dihydropyrimidines and Uses Thereof” (priority 2005, published 2010).

Assays:
Hela cells = assay: cells; conditions: Homo sapiens, 20 h
Description: Hela cells were grown (Maliga, et. al. 2001) to 20% confluence in 384-well, clear-bottomed, black-walled NUNC plates and serial dilutions of prospective Eg5 inhibitors were added by pin transfer, as above [0277], incubated at 37° C. for 20 hours, fixed with TBS-0.1% Triton X100 supplemented with 4% formaldehyde, and stained stained for DNA, phosphorylated Ser10-Histone 3, and alpha-tubulin. Each drug concentration was inspected for the characteristic monoaster phenotype: condensed phospho-S10 positive chromosomes arranged in a rosette pattern around a circularly symmetric array of microtubules, and the absence of bi-polar mitotic spindles.

[1] = target: T1, Eg5 motor domain construct Eg5-367H (Homo sapiens, UniProt P52732); assay: Activity of Eg5 inhibitors in pure protein assay (microtubule-stimulated ATP hydrolysis, malachite green phosphate detection); assay type: biochemical; conditions: microtubule-stimulated ATP hydrolysis by Eg5-367H, 25 degrees, 2 hours
T1 construct: the Eg5 motor domain construct Eg5-367H; His tag (read from the 'H' in the construct name; not spelled out for this construct)
T1 sequence (P52732 18-359 limits assumed): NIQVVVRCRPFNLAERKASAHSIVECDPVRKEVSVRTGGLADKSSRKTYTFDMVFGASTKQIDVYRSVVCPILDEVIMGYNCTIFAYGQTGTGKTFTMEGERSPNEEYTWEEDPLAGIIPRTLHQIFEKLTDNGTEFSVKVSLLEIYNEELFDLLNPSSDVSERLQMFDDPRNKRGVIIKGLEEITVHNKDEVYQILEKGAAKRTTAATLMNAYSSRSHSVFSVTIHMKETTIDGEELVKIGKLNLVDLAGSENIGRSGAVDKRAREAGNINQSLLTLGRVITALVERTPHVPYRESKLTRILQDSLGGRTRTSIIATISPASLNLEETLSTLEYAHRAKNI
Description: We utilized a colorimetric phosphate detection assay (Funk, 2004) to measure microtubule-stimulated ATP hydrolysis by the Eg5 motor domain construct Eg5-367H (Maliga, 2002) as a function of drug concentration. Stocks solutions of each compound were prepared by serial dilution into DMSO and 0.1 microliters was added by pin transfer into KC25 buffer (20 mM PIPES-KOH, pH 6.9, 25 mM KCl, 2 mM MgC12) supplemented with 1 mM ATP-KOH, pH 6.9. KC25 supplemented with 10 micromolar taxol, 50 nanomolar Eg5-367H, and 1 micromolar taxol-polymerized microtubules was then added and the reaction incubated at 25 degrees for 2 hours. Malachite green assay solution (7% (w/v) perchloric acid, 0.0075% (w/v) malachite green oxalate, 0.2% (w/v) sodium molybdate dihydrate) was added to each reaction and the optical absorbance at 640 nm (640) was measured after a 30 minute incubation using a Wallac II automated plate reader. A640 as a function of! drug concentration (C) was fit to the equation A640=A0+B/(1+C/IC50) using Kaleidegraph 3.0, A0 is the basal A640, B is the maximum increase in A640, and IC50 is the drug concentration that inhibits half the Eg5 activity.

SMILES | IC50 (Hela cells) [µM] | IC50 [1] [µM]
O=C1NCCC2=C1C(c1cccc(O)c1)NC(=S)N2 (stereo not shown) [Entry 1] | 50 | 1.5
CCOC(=O)C1=C(CCN)NC(=S)NC1c1cccc(O)c1 (stereo not shown) [Entry 2] | > 300 | > 30
CCOC(=O)C1=C(CCNC(=O)OC(C)(C)C)NC(=S)NC1c1cccc(O)c1 (stereo not shown) [Entry 3] | > 300 | > 30
CCOC(=O)C1=C(CCO[Si](C(C)C)(C(C)C)C(C)C)NC(=S)NC1c1cccc(O)c1 (stereo not shown) [Entry 4] | > 300 | > 30
O=C1OCCC2=C1C(c1cccc(O)c1)NC(=S)N2 (stereo not shown) [Entry 5] | 30 | 0.5
CCOC(=O)C1=C(CN)NC(=S)NC1c1cccc(O)c1 (stereo not shown) [Entry 6] | 200 | 12
CCOC(=O)C1=C(CO)NC(=S)NC1c1cccc(O)c1 (stereo not shown) [Entry 7] | 300 | 30
O=C1OCC2=C1C(c1cccc(O)c1)NC(=S)N2 (stereo not shown) [Entry 8] | 300 | 20
O=C1NCC2=C1C(c1cccc(O)c1)NC(=S)N2 (stereo not shown) [Entry 9] | > 300 | 12
CCOC(=O)C1=C(C)NC(=S)NC1c1cccc(N)c1 (stereo not shown) [Entry 10] | > 300 | > 30
CCOC(=O)C1=C(C)NC(=S)NC1c1cccc(O)c1 (stereo not shown) [Monastrol, reference compound] | 300 | 12
